Activity calls are given as the source filed them. For most assays here, no stated cut-off is given here; in the data, actives have a measured EC50 and inactives only a lower limit.
Experiments:
cells [1] = format: functional, cell-based
cells [2] = format: functional, cell-based; remark: listed apart in the source
[3] = biological target: T1, Calpain-2 catalytic subunit (Sus scrofa, UniProt P43367); test: m-calpain protease blockers, concentration series – biochemical, fluorogenic peptide substrate, dose response (AID 1420); format: functional
T1 sequence (P43367 whole entry): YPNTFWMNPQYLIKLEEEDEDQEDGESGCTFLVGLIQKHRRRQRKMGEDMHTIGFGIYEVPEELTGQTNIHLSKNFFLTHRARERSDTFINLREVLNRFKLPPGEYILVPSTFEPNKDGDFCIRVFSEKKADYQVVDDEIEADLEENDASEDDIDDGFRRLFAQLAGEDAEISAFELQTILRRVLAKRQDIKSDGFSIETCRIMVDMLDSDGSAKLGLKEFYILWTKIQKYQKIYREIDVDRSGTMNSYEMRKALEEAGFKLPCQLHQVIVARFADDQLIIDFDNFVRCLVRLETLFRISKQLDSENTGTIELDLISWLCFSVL

[4] = Trypanosoma cruzi growth suppression in host cells – NIH3T3 host cells, beta-gal luminescence, confirmation (AID 2044); format: functional, cell-based;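 further: intracellular parasites grown in NIH/3T3 mouse fibroblasts as host cells; luminescent beta-galactosidase reporter signal from transgenic T. cruzi replicating inside host cells; inhibitors lower the luminescence signal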
[5] = biological target: T2, Heat shock factor protein 1 (Mus musculus, UniProt P38532); test: enhancement of HSF1-driven luciferase signal – cell-based, NIH3T3, luminescence, dose retest, confirmation (AID 435004); format: functional;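 further: stress induced by proteasome inhibitor MG132 added 30 min after compound; luciferase reporter driven by HSF1 response element in NIH3T3 cells; actives raise luminescence as potentiators of the MG132 stress response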
T2 sequence (P38532 whole entry): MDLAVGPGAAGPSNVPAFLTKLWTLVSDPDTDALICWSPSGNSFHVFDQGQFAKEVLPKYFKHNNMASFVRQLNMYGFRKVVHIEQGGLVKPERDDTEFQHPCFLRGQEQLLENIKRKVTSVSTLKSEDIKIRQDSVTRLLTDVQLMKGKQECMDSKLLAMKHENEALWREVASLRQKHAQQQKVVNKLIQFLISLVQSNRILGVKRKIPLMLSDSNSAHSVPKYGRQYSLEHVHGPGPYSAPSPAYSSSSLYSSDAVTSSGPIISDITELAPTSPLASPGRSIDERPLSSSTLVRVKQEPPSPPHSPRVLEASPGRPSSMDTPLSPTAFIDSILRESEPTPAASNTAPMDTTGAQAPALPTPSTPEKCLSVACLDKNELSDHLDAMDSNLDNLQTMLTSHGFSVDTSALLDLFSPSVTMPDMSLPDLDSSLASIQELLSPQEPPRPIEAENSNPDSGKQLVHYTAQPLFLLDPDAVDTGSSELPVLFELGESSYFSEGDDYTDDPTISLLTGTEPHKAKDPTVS

[6] = NIH3T3 cell viability loss – ATP luminescence, mouse fibroblasts, counter-screen, dose response (AID 2010); format: functional, cell-based;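 further: cells exposed to compound for about 90 hours before reading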
Fatty acid synthase [7] = biological target: T3, Fatty acid synthase (Homo sapiens, UniProt P49327); test: inhibition of human FAS-TE enzyme activity – biochemical, endpoint fluorescence intensity, uHTS hits, dose response (AID 624327); format: functional;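 further: fluorescence from hydrolysis of an O-methyl fluorescein acyl ester substrate by the enzyme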
T3 sequence (P49327 whole entry): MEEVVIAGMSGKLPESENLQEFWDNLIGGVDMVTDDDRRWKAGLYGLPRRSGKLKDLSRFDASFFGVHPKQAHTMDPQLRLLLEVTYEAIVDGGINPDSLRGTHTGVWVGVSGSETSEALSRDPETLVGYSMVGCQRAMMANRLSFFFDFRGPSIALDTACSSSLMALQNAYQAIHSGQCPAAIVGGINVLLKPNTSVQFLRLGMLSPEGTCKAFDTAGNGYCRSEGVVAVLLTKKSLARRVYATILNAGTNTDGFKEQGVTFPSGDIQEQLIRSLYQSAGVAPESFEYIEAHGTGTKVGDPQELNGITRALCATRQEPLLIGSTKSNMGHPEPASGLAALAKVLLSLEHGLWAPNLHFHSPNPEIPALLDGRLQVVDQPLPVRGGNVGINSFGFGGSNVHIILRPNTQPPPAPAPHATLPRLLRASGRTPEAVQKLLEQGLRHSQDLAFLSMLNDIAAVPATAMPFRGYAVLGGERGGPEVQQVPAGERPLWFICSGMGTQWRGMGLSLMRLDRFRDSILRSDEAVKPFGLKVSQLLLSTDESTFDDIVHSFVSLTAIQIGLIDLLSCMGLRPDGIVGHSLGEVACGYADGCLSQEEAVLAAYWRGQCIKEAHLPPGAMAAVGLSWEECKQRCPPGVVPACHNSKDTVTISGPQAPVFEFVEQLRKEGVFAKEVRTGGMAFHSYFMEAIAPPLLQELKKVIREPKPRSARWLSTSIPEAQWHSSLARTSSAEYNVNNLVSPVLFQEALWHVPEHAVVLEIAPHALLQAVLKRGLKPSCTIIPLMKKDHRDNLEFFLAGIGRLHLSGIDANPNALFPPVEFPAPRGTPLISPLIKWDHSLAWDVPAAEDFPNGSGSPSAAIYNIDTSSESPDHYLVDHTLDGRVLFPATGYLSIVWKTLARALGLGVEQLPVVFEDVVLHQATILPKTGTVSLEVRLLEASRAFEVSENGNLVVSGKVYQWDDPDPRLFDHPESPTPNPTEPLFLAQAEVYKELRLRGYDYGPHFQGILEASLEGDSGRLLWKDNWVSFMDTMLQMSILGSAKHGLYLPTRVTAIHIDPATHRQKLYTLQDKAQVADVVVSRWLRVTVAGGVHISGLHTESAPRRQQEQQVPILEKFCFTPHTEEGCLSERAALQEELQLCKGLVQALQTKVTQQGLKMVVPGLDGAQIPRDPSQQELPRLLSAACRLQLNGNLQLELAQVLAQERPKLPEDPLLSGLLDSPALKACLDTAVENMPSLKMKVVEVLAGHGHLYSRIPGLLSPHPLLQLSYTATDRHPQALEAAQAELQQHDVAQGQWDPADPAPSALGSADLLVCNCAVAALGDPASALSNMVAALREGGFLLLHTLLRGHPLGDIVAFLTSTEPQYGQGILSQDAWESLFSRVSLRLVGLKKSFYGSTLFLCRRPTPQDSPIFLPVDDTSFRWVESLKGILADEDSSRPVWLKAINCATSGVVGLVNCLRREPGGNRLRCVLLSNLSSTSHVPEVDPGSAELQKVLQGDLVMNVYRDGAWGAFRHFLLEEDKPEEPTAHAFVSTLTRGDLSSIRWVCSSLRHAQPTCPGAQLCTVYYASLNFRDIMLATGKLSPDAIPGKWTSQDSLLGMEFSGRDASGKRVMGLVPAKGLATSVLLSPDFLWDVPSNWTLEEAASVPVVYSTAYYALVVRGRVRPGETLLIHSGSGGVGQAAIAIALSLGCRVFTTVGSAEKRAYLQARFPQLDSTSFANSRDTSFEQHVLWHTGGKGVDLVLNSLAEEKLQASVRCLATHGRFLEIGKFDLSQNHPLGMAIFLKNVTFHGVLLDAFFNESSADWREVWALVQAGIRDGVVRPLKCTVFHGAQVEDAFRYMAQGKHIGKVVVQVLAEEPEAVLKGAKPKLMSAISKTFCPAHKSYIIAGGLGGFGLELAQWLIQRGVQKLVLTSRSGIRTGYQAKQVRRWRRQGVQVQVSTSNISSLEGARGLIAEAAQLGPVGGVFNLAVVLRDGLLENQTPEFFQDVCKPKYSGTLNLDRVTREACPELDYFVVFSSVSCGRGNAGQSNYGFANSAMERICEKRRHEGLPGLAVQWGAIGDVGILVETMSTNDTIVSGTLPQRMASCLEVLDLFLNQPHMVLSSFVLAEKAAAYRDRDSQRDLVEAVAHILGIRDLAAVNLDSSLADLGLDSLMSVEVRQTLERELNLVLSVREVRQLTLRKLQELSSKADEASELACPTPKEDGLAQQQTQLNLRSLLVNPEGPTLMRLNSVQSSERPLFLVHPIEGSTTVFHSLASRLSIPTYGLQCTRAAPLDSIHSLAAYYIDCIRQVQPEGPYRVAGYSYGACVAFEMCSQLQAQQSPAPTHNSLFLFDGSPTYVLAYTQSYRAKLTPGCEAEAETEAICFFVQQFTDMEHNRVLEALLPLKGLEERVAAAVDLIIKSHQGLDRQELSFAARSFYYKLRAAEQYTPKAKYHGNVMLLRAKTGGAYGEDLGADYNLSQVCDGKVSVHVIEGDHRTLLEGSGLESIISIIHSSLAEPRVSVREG

Fatty acid synthase [8] = biological target: T3, Fatty acid synthase; test: inhibition of human FAS-TE enzyme activity – biochemical, kinetic fluorescence intensity, dose response (AID 624326); format: functional;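 further: rate of fluorescence rise from hydrolysis of a fluorogenic O-methyl fluorescein ester substrate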
[9] = Luminescence Cell-Based Dose Response HTS to Identify Activators of Luciferase Translation or Activity in H4 […] Cells. [Related pubchem assays: 1829 (Project Summary), 1814 (Primary HTS)]; format: functional
H4 = test: Luminescence Cell-Based Dose Response HTS to Identify Activators of 5'UTR Stem-Loop Driven Prion Protein mRNA Translation in H4 Neuroglioblastoma Cells. [Related pubchem assays: 1829 (Project Summary), 1814 (Primary HTS)]; format: functional; conditions: Homo sapiens
[10] = Luminescence Cell-Based Dose Retest to Confirm Inhibitors of Cancer Stem Cells. [Related pubchem assays (depositor defined):AID2717, AID2721]; format: functional; conditions: Homo sapiens
INS1 = test: INS-1E survival protection against cytokine death – cell-based, luminescence, retest, dose response (AID 449756); format: functional; conditions: Rattus norvegicus;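 further: cell death triggered by IL-1 beta plus TNF-alpha plus IFN-gamma mixture; protective hits raise ATP signal compared with cytokine alone wells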
[11] = Luminescence Cell-Based Dose Confirmation HTS to Identify Inhibitors of Platelet Dense Granule Release. [Related pubchem assays: 1663 (Primary HTS), 1678 (Summary of Project)]; format: functional
[12] = biological target: Luciferin 4-monooxygenase (Photinus pyralis, UniProt P08659); test: inhibition of purified Photinus pyralis luciferase – biochemical, luminescence, dose response (AID 1891)
Sequence of Luciferin 4-monooxygenase (P08659 whole entry): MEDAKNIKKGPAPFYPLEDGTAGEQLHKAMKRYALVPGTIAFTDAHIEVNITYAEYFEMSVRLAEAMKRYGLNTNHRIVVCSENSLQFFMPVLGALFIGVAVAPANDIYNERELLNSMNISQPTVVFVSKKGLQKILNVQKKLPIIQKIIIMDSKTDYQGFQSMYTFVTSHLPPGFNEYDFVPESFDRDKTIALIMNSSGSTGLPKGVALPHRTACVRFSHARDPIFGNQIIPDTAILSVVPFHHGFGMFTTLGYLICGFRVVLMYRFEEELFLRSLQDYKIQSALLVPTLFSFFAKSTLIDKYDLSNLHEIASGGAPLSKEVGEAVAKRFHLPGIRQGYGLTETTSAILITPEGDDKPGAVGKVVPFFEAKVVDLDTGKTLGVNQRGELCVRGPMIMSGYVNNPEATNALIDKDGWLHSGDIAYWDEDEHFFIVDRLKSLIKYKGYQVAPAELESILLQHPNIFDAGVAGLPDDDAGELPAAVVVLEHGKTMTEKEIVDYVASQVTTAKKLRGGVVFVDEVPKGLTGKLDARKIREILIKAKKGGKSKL

Protein skinhead-1 = biological target: T4, Protein skinhead-1 (Caenorhabditis elegans, UniProt P34707); format: functional
T4 sequence (P34707 whole entry): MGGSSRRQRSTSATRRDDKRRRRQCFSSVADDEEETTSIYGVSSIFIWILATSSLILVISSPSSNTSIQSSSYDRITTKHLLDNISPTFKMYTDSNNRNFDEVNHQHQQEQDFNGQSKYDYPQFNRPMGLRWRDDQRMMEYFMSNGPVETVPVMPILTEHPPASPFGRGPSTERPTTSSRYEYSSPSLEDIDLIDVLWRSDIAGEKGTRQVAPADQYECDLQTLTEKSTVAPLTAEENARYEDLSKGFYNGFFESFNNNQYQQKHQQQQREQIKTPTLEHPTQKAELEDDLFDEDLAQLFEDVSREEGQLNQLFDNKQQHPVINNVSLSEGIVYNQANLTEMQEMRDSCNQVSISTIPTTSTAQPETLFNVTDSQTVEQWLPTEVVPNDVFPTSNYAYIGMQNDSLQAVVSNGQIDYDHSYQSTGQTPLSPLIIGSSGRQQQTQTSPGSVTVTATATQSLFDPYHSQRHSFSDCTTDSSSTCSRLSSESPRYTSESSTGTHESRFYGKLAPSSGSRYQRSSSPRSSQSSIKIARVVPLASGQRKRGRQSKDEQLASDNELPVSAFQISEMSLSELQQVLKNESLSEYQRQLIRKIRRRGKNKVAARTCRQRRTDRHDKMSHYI

In the case of `COc1ccc(C(=O)N2CCCCCC2)cc1S(=O)(=O)N1CCOCC1`, the EC50 (cells [1]) is reported as > 350 µM (not active) and the EC50 (cells [2]) is reported as > 350 µM (not active).

In the case of `COc1cccc(C(=O)C2CCCN(Cc3ccc4nsnc4c3)C2)c1` (stereo not drawn), the EC50 (cells [1]) is reported as > 350 µM (not active) and the EC50 (cells [2]) is reported as > 350 µM (not active).

With `CC1CC(=O)c2cnc(NCC3CCCO3)nc2C1` (stereo not drawn) the IC50 [3] was 6.33 µM (not active).

For `c1ccc(CCc2ccncc2)cc1`, the EC50 [4] was 1.52 µM (active), the EC50 [5] was > 260 µM (inactive) and the EC50 [6] was > 60 µM (not active).

With `COc1ccc(C(=O)NCC(=O)OCC(=O)c2ccc3c(c2)NC(=O)CO3)cc1` the EC50 [5] was > 260 µM (inactive).

With `O=C(NNS(=O)(=O)c1ccc([N+](=O)[O-])cc1)c1ccc([N+](=O)[O-])cc1` the IC50 (Fatty acid synthase [7]) was 4.95 µM (active) and the IC50 (Fatty acid synthase [8]) was 4.24 µM (active).

In the case of `ON=C1c2cc(OCCN3CCCCC3)ccc2-c2ccc(OCCN3CCCCC3)cc21`, the EC50 [4] is reported as 1.43 µM (active), the EC50 (cells [1]) is reported as > 350 µM (not active) and the EC50 (cells [2]) is reported as > 350 µM (not active). For the same compound, the EC50 [9] was > 120 µM (not active), the EC50 (H4) was > 120 µM (not active) and the EC50 [6] was > 60 µM (not active).

With `FC(F)(F)c1cccc(N2CCN(C(S)=NC3CCCC3)CC2)c1` the IC50 [3] was 7.79 µM (not active).

For `Cc1ccc(NC(=O)Cn2cnc3c(=O)n(C)c(=O)n(C)c32)c(C)c1`, the EC50 (cells [1]) was > 350 µM (not active) and the EC50 (cells [2]) was > 350 µM (not active).

For `Nc1ccc(C(=O)Nc2ccc3[nH]c(-c4ccncc4)nc3c2)cc1`, the EC50 (cells [1]) was 49.5 µM (active) and the EC50 (cells [2]) was > 350 µM (not active).

With `Cc1ccccc1CCN(C(=O)Cn1nnc2ccccc21)C(C(=O)NCC1CCCO1)c1nc2ccccc2n1C` (stereo not drawn) the IC50 [3] was 29.6 µM (not active).

For `O=C(COC(=O)c1cc([N+](=O)[O-])ccc1N1CCOCC1)Nc1c(Cl)cccc1C(F)(F)F`, the IC50 (Fatty acid synthase [7]) was 8.05 µM (active) and the IC50 (Fatty acid synthase [8]) was 8.39 µM (active).

With `CCOC(=O)N1CCN(c2ccc(C(=O)c3cccc(F)c3)cc2)CC1` the IC50 [3] was 14.3 µM (not active) and the AC50 [10] was 3.36 µM (active).

With `COc1ccc(/C=C/C(=O)c2ccc([N+](=O)[O-])o2)cc1` the AC50 (INS1) was 6.75 µM (active) and the AC50 [10] was 1.31 µM (active).

In the case of `CCCCC(=O)OCC(=O)c1[nH]c(C)c(C(C)=O)c1C`, the IC50 [3] is reported as 21.5 µM (not active), the EC50 [11] is reported as 0.816 µM (active) and the EC50 [12] is reported as > 112 µM (not active).

In the case of `COC(=O)N1C(=O)[C@](CC(C)C)(c2ccccc2)N1C(=O)OC`, the IC50 (Fatty acid synthase [7]) is reported as 0.544 µM (active) and the IC50 (Fatty acid synthase [8]) is reported as 0.385 µM (active).

For `COc1ccc(CCNC(=O)COC(=O)CCC(=O)c2ccc(F)cc2)cc1OC`, the EC50 (cells [1]) was > 350 µM (not active) and the EC50 (cells [2]) was > 350 µM (not active).

In the case of `C=C1CCC[C@]2(C)C[C@H]3OC(=O)C(CNC(CC)CO)[C@H]3CC12` (stereo partly drawn), the EC50 [5] is reported as > 260 µM (inactive).

With `CCCCn1c(=O)c2c(=O)cc(O)oc2c2ccccc21` the EC50 (cells [1]) was > 350 µM (not active) and the EC50 (cells [2]) was > 350 µM (not active).

For `Cc1nc2scc(-c3ccccc3)c2c(=O)o1`, the IC50 (Fatty acid synthase [7]) was 5.75 µM (active) and the IC50 (Fatty acid synthase [8]) was 80 µM (inactive).

With `Cc1nn(-c2ccc(F)cc2)c2sc(C(=O)N3CCCCCC3)cc12` the IC50 (Protein skinhead-1) was > 100 µM (inactive) and the IC50 [3] was > 50 µM (not active).

With `COc1ccc(Nc2nc(-c3ccccc3O)nc3ccccc23)cc1` the AC50 [10] was 2.75 µM (active).

With `CC(C)Cn1c(SCC(=O)NC(=O)Nc2ccc3c(c2)OCCO3)nc2ccccc2c1=O` the IC50 [3] was > 50 µM (not active).

In the case of `O=S(=O)(c1ccc(Cl)cc1)N1CCCC(c2nc(-c3ccc(F)cc3)no2)C1` (stereo not drawn), the IC50 (Fatty acid synthase [7]) is reported as 5.59 µM (active) and the IC50 (Fatty acid synthase [8]) is reported as 6.27 µM (active).

In the case of `O=C(O)c1cccnc1Sc1ccccc1`, the EC50 [5] is reported as > 260 µM (inactive).

In the case of `CC(=O)Cn1c(=O)c2c(nc3n2CCCN3Cc2ccccc2)n(C)c1=O`, the EC50 (cells [1]) is reported as > 350 µM (not active) and the EC50 (cells [2]) is reported as > 350 µM (not active).

In the case of `CCn1c(=O)c(C(=O)NCc2ccccc2OC)c(O)c2ccccc21`, the AC50 [10] is reported as 1.26 µM (active).

For `Cc1ccc(NC(=O)Nc2cccc(F)c2)nc1`, the EC50 (cells [1]) was > 350 µM (not active) and the EC50 (cells [2]) was 11.8 µM (active).

For `C=CCSc1nnc(-c2ccc([N+](=O)[O-])cc2)o1`, the IC50 [3] was 34.3 µM (not active).

In the case of `COc1c(Br)cc(Br)cc1C(=O)O`, the EC50 [5] is reported as > 260 µM (inactive).

In the case of `COC(=O)c1cccc(C(=O)N2CCCC(C(=O)c3ccccc3OC)C2)c1` (stereo not drawn), the EC50 [5] is reported as > 260 µM (inactive).

In the case of `CC(C=Cc1ccccc1)=NNS(=O)(=O)c1ccc([N+](=O)[O-])cc1`, the IC50 (Fatty acid synthase [7]) is reported as 9.36 µM (active) and the IC50 (Fatty acid synthase [8]) is reported as 6.23 µM (active).

For `C[C@@H]1CN([C@H](C)CO)C(=O)c2cccc(NC(=O)NC3CCCCC3)c2O[C@@H]1CN(C)C(=O)Nc1ccc(C(F)(F)F)cc1`, the IC50 (Fatty acid synthase [7]) was 2.09 µM (active) and the IC50 (Fatty acid synthase [8]) was 2.26 µM (active).

In the case of `COc1ccc(C2=CC(=O)CC(c3ccc(F)cc3)C2)cn1` (stereo not drawn), the EC50 [5] is reported as > 260 µM (inactive).

With `Cc1ccc(C(=O)N/C(=C\c2cn(S(=O)(=O)N(C)C)c3ccccc23)C(=O)N2CCCC2)cc1` the IC50 (Fatty acid synthase [7]) was 1.58 µM (active) and the IC50 (Fatty acid synthase [8]) was 1.23 µM (active).

With `COCCNC(=S)N/N=C/c1ccc(N2CCOCC2)cc1` the EC50 [5] was > 260 µM (inactive).

For `O=C(CN1CCN(S(=O)(=O)c2ccc(Cl)c(C(F)(F)F)c2)CC1)NC(=O)NC1CCCCC1`, the IC50 (Fatty acid synthase [7]) was 3.5 µM (active) and the IC50 (Fatty acid synthase [8]) was 37.1 µM (inactive).

For `CCc1nnc(S)n1/N=C/c1ccc(-c2ccc(Br)cc2)o1`, the EC50 (cells [1]) was > 350 µM (not active) and the EC50 (cells [2]) was > 350 µM (not active).

From ChEMBL document CHEMBL1201862, “PubChem BioAssay data set” (2004)
